Measurements reported in ChEMBL document CHEMBL1127089, “Non-nucleoside inhibitors of HIV-1 reverse transcriptase: molecular modeling and X-ray structure investigations” (J Med Chem, 1993).

target: Human immunodeficiency virus type 1 reverse transcriptase (Human immunodeficiency virus 1, UniProt Q72547); experiment: In vitro for inhibitory activity against HIV-1 Reverse Transcriptase

| SMILES | IC50 [nM] |
| --- | --- |
| O=C1c2ccccc2[C@@]23CC=CCC12c1ccccc1C3=O (stereo partly specified) | 8700 |
| O=C1c2ccccc2[C@H]2SCCN1c1ccccc12 | 830 |
| O=C1c2ccccc2C2(c3ccccc3)SCCN12 (stereo unspecified) | 280 |
| CC(C)=CCN1Cc2cccc3[nH]c(=S)n(c23)C[C@@H]1C | 160 |
| Cc1cccc(C23SCCN2C(=O)c2ccccc23)c1 (stereo unspecified) | 30 |
| O=C1c2ccccc2C2(c3cccc4ccccc34)SCCN12 (stereo unspecified) | 150 |
